Test results published in US20090012148A1, “REDUCING CELLULAR CHOLESTEROL LEVELS AND/OR TREATING OR PREVENTING PHOSPHOLIPIDOSIS” (priority 2005, published 2009).

How the values were obtained:
CT60 cells [1] = assay: Toxicity assay by cell count (Hoechst 33258); format: cell-based, Chinese hamster
Procedure: To measure toxicity, we treated CT60 and CT43 cells with compounds at 5, 10 and 20 μM for 24 h. The cell number per well was compared to control cells treated with DMSO (FIG. 7). […] Compound 1-a-14 did cause a 50% reduction in cell number at 10 μM for CT60 and an 80% reduction for CT43 cells. Compounds 1-a-4, 5, 6, 8 and 13 were partially toxic as indicated by 20-30% reduction in cell number after 24 h at 10 μM. Procedure Using Cell Count Assay: Compounds were added to CT60 and CT43 cells plated in 384 well plates at 0 (DMSO solvent control), 5, 10 and 20 μM concentrations in quadruplicate using methods similar to the dose dependence assay, except that the cells were stained with Hoechst 33258 nuclear stain. The final DMSO concentration in each well was 0.2%. For the control cells an equivalent amount of DMSO was added to the cells. The cells were incubated for 24, 48 and 72 h. After each time period, cells were washed and then fixed with 1.5% PFA. After washing the cells three times with PBS, the nuclei of the cells were stained using 5 μg/ml Hoechst 33258 (25 mg/ml stock solution in DMSO) in PBS for 45 m at room temperature. Finally, cells were washed three times with PBS, and images were obtained using a Nikon 4× Plan Apo 0.2NA objective. For Hoechst imaging we used the same filter set as for filipin. We collected one 520×696 pixel image per well at 12 intensity bits per pixel. Each pixel is 3.125 by 3.125 μm in […] the object. Cells were counted by defining the standard area of single nuclei (˜200 μm^2) interactively for each plate using the Integrated Morphometry Analysis function of MetaMorph. The number of standard areas per object above a threshold was determined, and the total number of standard areas per image was used as the cell count. The percent reduction in the number of cells compared to DMSO control was calculated for each concentration and time.

CT60 cells [2] = assay: Filipin binding assay, LSO compartment ratio (dose dependence, time course); format: cell-based, Chinese hamster
Description: Although the intensity assay was potentially useful, it seemed that additional information in the images could provide better discrimination of wild type vs. NPC cells. For this purpose, we took advantage of the spatial distribution of the filipin labeling of the LSOs, which cluster near the nucleus (FIG. 1B). We applied the second, higher threshold for this bright cluster. We then measured the total fluorescence intensity in the selected LSO objects (high threshold, FIG. 2C) divided by the total number of pixels in cells (low threshold, FIG. 2D).
Image analysis: Images of filipin-stained cells were analyzed using Metamorph Discovery-1 image analysis software. Two different image analysis assays were developed: (1) Average filipin intensity assay and (2) LSO compartment ratio assay. First, to correct for shading an image was created by averaging all of the images from a plate and smoothing the averaged image using a low pass filter. Then each pixel in an image was multiplied by the average intensity of the shading image, and the resulting pixel intensities were divided by the shading image on a pixel-by-pixel basis. Background was subtracted from each shading-corrected image by determining the 5th percentile intensity value of the image and subtracting this value from each pixel in the image. At the plating density used, all fields had at least 5% of the imaged areas that was cell-free. Next, two different thresholds were applied to the filipin images. For the first, a low threshold was set to include all areas occupied by cells. […] A second, higher threshold was set for brightly stained regions in CT60 and/or CT43 cells by selecting bright areas of filipin staining, with the intention of mainly identifying the LSOs in the perinuclear region of the cells. For the Average filipin intensity assay, using the low threshold alone, we measured total filipin intensity above the low threshold divided by the number of pixels above the lower threshold for each field. This gave an average filipin intensity per cell area. For the LSO compartment ratio we measured the total filipin intensity selectively in the region above the higher threshold divided by the number of pixels in the lower threshold. This gave a measure of the total intensity of LSO filipin per cell area.
Dose Dependence: Using the same methods as for the screening, compounds were tested at 10 μM, 3.33 μM, 1.11 μM, 370 nM and 123 nM in four wells each. Batches of selected compounds were purchased from Chemical Diversity, and 10 mM stocks in DMSO were made. A secondary stock plate of 2× concentration (20 μM, 6.66 μM, 2.22 μM, 740 nM and 246 nM) of compounds was prepared in screening medium S. To obtain the final concentrations, […] of this secondary stock was added to the cells in each well containing 30 μl of growth medium A supplemented with 10% FBS. The final DMSO concentration (0.2% v/v) was the same in all wells. Cells were plated at 650 cells per well in 30 μl of growth medium A supplemented with 10% FBS in Costar 384 well plates. After 20 h of incubation in the presence of the compounds, cells were washed with PBS, fixed with PFA and stained with filipin as described for the screening assay. Dose dependence determination of the initial 14 hit compounds from the primary library was done at least 5 times in CT60 cells and 3 times in CT43 cells in separate experiments. Dose dependence determination of the 7 hit compounds from the secondary library was carried out at least 3 times in CT60 cells and 2 times in CT43 cells in separate experiments.
The effects of the compounds were determined at 1.11, 3.33 and 10 μM concentrations after 4, 20 and 48 h using methods similar to the dose dependence. The CT60 cells were seeded in three 384 well plates at 600 cells/well in growth medium on day 1. To maintain the same density of cells at the final time point, compounds were added chronologically. […]

SMILES | reduction in cell number (CT60 cells [1]; 10 μM, 24 h) [%] | shape of dose-response curve (CT60 cells [2]; 123 nM to 10 μM) | Cell Count After 24 h @ 10 μM dose Fraction of Control (CT60 cells [1]; 10 μM) | effect below solvent control at 123 nM (CT60 cells [2]) [SD] | Lowest Effective Dose (LSO Assay) (−3 SD @ 20 h) (CT60 cells [2]) [µM] | decrease in the LSO compartment ratio after 4 hr treatment (CT60 cells [2]; 4 hr, 1.1, 3.3 and 10 μM tested) | reduction in the number of cells (CT60 cells [1]; 20 μM, 24 h) [%]
CCOc1cccc2cc(-c3csc(Nc4cccc(C(F)(F)F)c4)n3)c(=O)oc12 [Compound 1-a-14] | 50 | unusual dose-response curve |  |  |  |  | 
COc1ccccc1Nc1nc(Nc2ccccc2OC)nc(Nc2ccccc2OC)n1 [Compound 2-a-9] |  |  | 0.90 Fraction of Control | 2 | 370 |  | 
O=[N+]([O-])c1cccc(C=NNc2nc(Nc3cccc4ccccc34)nc(N(c3ccccc3)c3ccccc3)n2)c1 [Compound 2-a-13] |  |  | 1.00 Fraction of Control |  | 370 |  | 
C=CCN1C(=O)C(=Cc2cc(C)n(-c3ccccc3)c2C)C(C(=O)OC)=C1C [Compound 2-a-15] |  |  | 0.94 Fraction of Control |  | 3.33 |  | 
CCN(CC)c1ccc(C=C2SC(=S)N(c3ccc(OC)cc3)C2=O)cc1 [Compound 2-a-3] |  |  | 1.00 Fraction of Control |  | 3.33 | more than 3 SD | 
FC(F)(F)COc1nc(NN=Cc2cccc(I)c2)nc(N(c2ccccc2)c2ccccc2)n1 [Compound 2-a-12] |  |  | 0.67 Fraction of Control | 2 | 370 |  | 75
